# Measurements: patent US8765949B2, “CCR2 receptor antagonists and uses thereof” (Boehringer Ingelheim International GmbH, priority 2009, dated 2014)
# Molecular target: T1, CCR2 (Homo sapiens, UniProt P41597)
# T1 construct: Membranes were prepared from THP-1 cells; endogenous in cells; host or cells: THP-1 (human acute monocytic leukaemia cells), membrane preparation
# T1 sequence (P41597 1-360 isoform P41597-2): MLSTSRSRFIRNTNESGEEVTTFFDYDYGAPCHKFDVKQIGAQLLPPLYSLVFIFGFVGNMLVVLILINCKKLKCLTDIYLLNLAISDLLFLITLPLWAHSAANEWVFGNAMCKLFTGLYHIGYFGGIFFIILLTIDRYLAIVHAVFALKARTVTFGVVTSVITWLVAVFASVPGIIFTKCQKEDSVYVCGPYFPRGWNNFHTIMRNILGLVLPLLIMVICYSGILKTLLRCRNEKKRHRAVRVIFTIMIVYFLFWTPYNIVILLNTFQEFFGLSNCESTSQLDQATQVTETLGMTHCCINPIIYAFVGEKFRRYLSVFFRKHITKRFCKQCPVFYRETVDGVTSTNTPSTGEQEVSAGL
# Assay: CCR2 receptor membrane binding assay ([125I]MCP-1, THP-1 membranes, SPA beads)
# Settings: dissociation constant hKi; THP-1 cell membranes, [125I]MCP-1, bound radioactivity after 8 h
# Experimental: The above exemplary substances have been tested for binding to CCR2 using a binding assay as outlined herein below:
# THP-1 cells (human acute monocytic leukaemia cells) were cultured under standardized conditions at 37° C. and 5% CO2 in a humidified incubator. THP-1 cells were cultivated in RPMI 1640 medium (Gibco 21875) containing 1% MEM-NEAA (Gibso 11140) 2 mM L-glutamine, 1.5 g/L sodium bicarbonate, 4.5 g/L glucose, 10 mM HEPES and 1.0 mM sodium pyruvate, 90%; 10% fetal calf serum (FCS Gibco 10500-064).
# Membranes were prepared from THP-1 cells. THP-1 cells were centrifuged at 300×g at 4° C. for 10 min. The cell pellet was resuspendet in Phosphate Buffer Saline (PBS, including 10 μM Pefabloc and a protease inhibitor mix ‘complete’, Boehringer Mannheim (1 tablet/50 ml)), to a concentration of […]. The membrane preparation was performed by disrupting the cells by nitrogen […] (at 50 bar, for 1 h) in a “Nitrogen Bombe” (Parr Instrument). Cell debris was removed by centrifugation (800×g at 4° C., 1 min). The supernatant was centrifuged at 80000×g, 4° C. for 30 min to sediment the cell membranes. Usually 50 mg of protein (Bradford assay) were yielded from 1×10E9 cells. The membranes were resuspendet in 25 mM HEPES, 25 mM MgCl2, 1 mM CaCl2, 10% Glycerine for storage in aliquots at −80° C. in 25 mM HEPES, 25 mM MgCl2, 1 mM CaCl2, 10% Glycerine and stored at −80° C.
# Receptor Membrane Binding Assay:
# Perkin Elmer NEX 332 Jod 125 MCP-1, Stock: 2200 Ci/mmol solved in 2000 μl assay buffer, stored at −20° C. THP-1 membrane were adjusted with 25 mM HEPES, pH 7.2; 5 mM MgCl2; 0.5 mM CaCl2; 0.2% BSA assay buffer to a concentration of 2.5 μg/15 μl. Amersham Biosciences PVT-WGA Beads (RPNQ0001) were adjusted with assay buffer to a concentration of 0.24 mg/30 μl. For preparation of the membrane-bead-suspension membranes and beads were incubated for 30 min at RT under rotation (60 rpm) with a ratio of 1:2. Test compounds dissolved in 100% DMSO to a concentration of 10 mM and are further diluted with 100% DMSO to 1 mM. All additional compound dilutions were obtained with assay buffer, final 1% DMSO. Compounds, membrane-bead-suspension and [125I]MCP-1 (ca. 25000 cpm/10 μl) were incubated. Bound radioactivity was determined by scintillation counter after 8 h. Determination of affinity of test compounds (dissociation constant hKi) is calculated by iterative fitting of experimental data using the “easy sys” program, which is based on law of mass action (Schittkowski K. (1994), Numerische Mathematik, Vol. 68, 129-142).
row,SMILES,Ki
1,"Cc1c(NC[C@@H]2CCC[C@H](c3ccccc3)O2)ncnc1C(=O)N1CCC(N2CCC(N(C)S(C)(=O)=O)CC2)CC1 (single isomer, unassigned) [Example 12]",27 nM
2,Cc1cccc([C@H]2CCC[C@@H](CNc3ncnc(C(=O)N4CCC(N5CCC(N(C)S(C)(=O)=O)CC5)CC4)c3C)O2)c1 [Example 23],494 nM
3,CO[C@@H]1COCC[C@@H]1NC1CCN(C(=O)c2ncnc(NC[C@@H]3CCC[C@H](c4ccccc4)O3)c2C)CC1 [Example 39],287 nM
4,Cc1c(NC[C@@H]2CCC[C@H](c3cccc(C(F)(F)F)c3)O2)ncnc1C(=O)N1CCC(N2CCC(N(C)S(C)(=O)=O)CC2)CC1 [Example 28a],45 nM
5,CO[C@H]1COCC[C@H]1NC1CCN(C(=O)c2ncnc(NC[C@@H]3CCC[C@H](c4ccc(C)cc4)O3)c2C)CC1 [Example 31],276 nM
6,Cc1ccc(C2CCC[C@H](CNc3ncnc(C(=O)N4CCC(N5CCC(c6cccc(C(=O)O)c6)CC5)CC4)c3C)O2)cc1 (some centres unmarked) [Example 56],802 nM
7,CO[C@@H]1COCC[C@@H]1NC1CCN(C(=O)c2ncnc(NC[C@@H]3CCC[C@H](c4ccc(Cl)cc4)O3)c2C)CC1 [Example 43],39 nM
8,COC1CCN(C2CCN(C(=O)c3ncnc(NC[C@H]4CCC[C@@H](c5ccc(C(F)(F)F)cc5)O4)c3C)CC2)CC1 [Example 4],26 nM
9,CO[C@@H]1COCC[C@@H]1NC1CCN(C(=O)c2ncnc(NC[C@@H]3CCC[C@H](c4ccc(C(F)(F)F)cc4)O3)c2C)CC1 [Example 37],25 nM
10,CO[C@H]1COCC[C@H]1NC1CCN(C(=O)c2ncnc(NC[C@@H]3CCC[C@H](c4ccc(C(F)(F)F)cc4)O3)c2C)CC1 [Example 36],51 nM
11,CO[C@@H]1COCC[C@@H]1NC1CCN(C(=O)c2ncnc(NC[C@@H]3CCC[C@H](c4cccc(C)c4)O3)c2C)CC1 [Example 33],148 nM
12,CO[C@H]1COCC[C@H]1NC1CCN(C(=O)c2nc(C)nc(NC[C@@H]3CCC[C@H](c4cccc(C)c4)O3)c2C)CC1 [Example 34],63 nM
13,CO[C@H]1COCC[C@H]1NC1CCN(C(=O)c2ncnc(NC[C@@H]3CCC[C@H](c4cccc(C)c4)O3)c2C)CC1 [Example 32],333 nM
14,Cc1c(NC[C@H]2CCC[C@@H](c3ccccc3)O2)ncnc1C(=O)N1CCC(N2CCC(N(C)S(C)(=O)=O)CC2)CC1 [Example 11],53 nM
15,CO[C@H]1COCC[C@H]1NC1CCN(C(=O)c2ncnc(NC[C@H]3CCC[C@@H](c4ccccc4)O3)c2C)CC1 [Example 40],26 nM
16,"Cc1c(NC[C@@H]2CCC[C@H](c3ccccc3)O2)ncnc1C(=O)N1CCC(N2CCC(N(C)S(C)(=O)=O)CC2)CC1 (single isomer, unassigned) [Example 13]",486 nM
17,Cc1c(NC[C@H]2CCC[C@@H](c3cccc(C(F)(F)F)c3)O2)ncnc1C(=O)N1CCC(N2CCC(N(C)S(C)(=O)=O)CC2)CC1 [Example 8],185 nM
18,Cc1cccc([C@H]2CCC[C@@H](CNc3nc(C)nc(C(=O)N4CCC(N5CCC(N(C)S(C)(=O)=O)CC5)CC4)c3C)O2)c1 [Example 28],658 nM
19,Cc1ccc([C@@H]2CCC[C@H](CNc3ncnc(C(=O)N4CCC(N5CCC(c6cccc(C(=O)O)c6)C5)CC4)c3C)O2)cc1 (some centres unmarked) [Example 55],311 nM

# Now those with a lower Ki, led by results:
row,Ki,SMILES
1,24 nM,Cc1c(NCC2CCCC(c3ccc(Cl)cc3)O2)ncnc1C(=O)N1CCC(N2CCC(N(C)S(C)(=O)=O)CC2)CC1 (centres unmarked) [Example 15]
2,21 nM,CO[C@H]1COCC[C@H]1NC1CCN(C(=O)c2nccc(NC[C@H]3CCC[C@@H](c4ccc(C)cc4)O3)c2C)CC1 [Example 53j]
3,20 nM,CO[C@@H]1COCC[C@@H]1NC1CCN(C(=O)c2ncnc(NC[C@H]3CCC[C@@H](c4ccc(OC(F)(F)F)cc4)O3)c2C)CC1 [Example 53b]
4,16 nM,Cc1c(NC[C@H]2CCC[C@@H](c3ccc(C(F)(F)F)cc3)O2)ncnc1C(=O)N1CCC(N2CCC3(CC2)Cc2ccccc2O3)CC1 [Example 53y]
5,12 nM,Cc1ccc([C@H]2CCC[C@@H](CNc3ncnc(C(=O)N4CCC(N5CCC(N(C)S(C)(=O)=O)CC5)CC4)c3C)O2)cc1F [Example 28d]
6,11 nM,Cc1ccc([C@@H]2CCC[C@H](CNc3ncnc(C(=O)N4CCC(N5CCC(N(C)S(C)(=O)=O)CC5)CC4)c3C)O2)cc1 [Example 17]
7,11 nM,Cc1ccc([C@@H]2CCC[C@H](CNc3nc(C)nc(C(=O)N4CCC(N5CCC(N(C)S(C)(=O)=O)CC5)CC4)c3C)O2)cc1 [Example 20]
8,9 nM,CO[C@H]1COCC[C@H]1NC1CCN(C(=O)c2nc(C)nc(NC[C@H]3CCC[C@@H](c4cccc(C)c4)O3)c2C)CC1 [Example 50]
9,8 nM,Cc1ccc([C@@H]2CCC[C@H](CNc3cc(C(=O)N4CCC(N5CCC(N(C)S(C)(=O)=O)CC5)CC4)ncn3)O2)cc1 [Example 28g]
10,7 nM,Cc1ccc([C@@H]2CCC[C@H](CNc3ncnc(C(=O)N4CCC(NC5CCOCC5F)CC4)c3C)O2)cc1 (some centres unmarked) [Example 53v]
11,7 nM,CO[C@@H]1COCC[C@@H]1NC1CCN(C(=O)c2ccnc(NC[C@H]3CCC[C@@H](c4ccc(C)cc4)O3)c2C)CC1 [Example 53a]
12,6 nM,Cc1c(NC[C@H]2CCC[C@@H](c3ccc(OC(F)(F)F)cc3)O2)ncnc1C(=O)N1CCC(N2CCC(N(C)S(C)(=O)=O)CC2)CC1 [Example 26]
13,6 nM,CO[C@@H]1COCC[C@@H]1NC1CCN(C(=O)c2ncnc(NC[C@@H]3CCC[C@H](c4cccc(C(F)(F)F)c4)O3)c2C)CC1 [Example 45]
14,5 nM,COc1nc(NC[C@H]2CCC[C@@H](c3ccc(C)cc3)O2)cc(C(=O)N2CCC(N[C@H]3CCOC[C@H]3OC)CC2)n1 [Example 53n]
15,4 nM,Cc1c(NC[C@H]2CCC[C@@H](c3ccc(C(F)(F)F)cc3)O2)ncnc1C(=O)N1CCC(N2CCC(N(C)S(C)(=O)=O)CC2)CC1 [Example 24]
16,2 nM,CO[C@H]1COCC[C@H]1NC1CCN(C(=O)c2cc(NC[C@H]3CCC[C@@H](c4ccc(C)cc4)O3)nc(C(F)(F)F)n2)CC1 [Example 53h]
17,2 nM,CO[C@@H]1COCC[C@@H]1NC1CCN(C(=O)c2cc(NC[C@H]3CCC[C@@H](c4ccc(C)cc4)O3)nc(C(F)(F)F)n2)CC1 [Example 53i]
18,1 nM,COc1nc(NC[C@H]2CCC[C@@H](c3ccc(C(F)(F)F)cc3)O2)c(C)c(C(=O)N2CCC(N[C@@H]3CCOC[C@@H]3OC)CC2)n1 [Example 53ab]
19,1 nM,CO[C@@H]1COCC[C@@H]1NC1CCN(C(=O)c2ncnc(NC[C@H]3CCC[C@@H](c4ccc(C(F)(F)F)cc4)O3)c2C)CC1 [Example 52]
20,0.8 nM,Cc1c(NC[C@H]2CCC[C@@H](c3ccc(OC(F)(F)F)cc3)O2)ncnc1C(=O)N1CCC(N[C@@H]2CCOC[C@@H]2F)CC1 [Example 53ak]
21,0.8 nM,COc1nc(NC[C@H]2CCC[C@@H](c3ccc(OC(F)(F)F)cc3)O2)cc(C(=O)N2CCC(N[C@H]3CCOC[C@H]3OC)CC2)n1 [Example 53r]
22,0.8 nM,CO[C@H]1COCC[C@H]1NC1CCN(C(=O)c2nc(C(F)(F)F)nc(NC[C@H]3CCC[C@@H](c4ccccc4)O3)c2C)CC1 [Example 53ah]
23,0.5 nM,Cc1c(NCC2CCCC(c3ccc(C(F)(F)F)o3)O2)ncnc1C(=O)N1CCC(N2CCC(N(C)S(C)(=O)=O)CC2)CC1 (centres unmarked) [Example 28b]
24,0.3 nM,CO[C@H]1COCC[C@H]1NC1CCN(C(=O)c2cc(NC[C@H]3CCC[C@@H](c4ccc(OC(F)(F)F)cc4)O3)nc(C(F)(F)F)n2)CC1 [Example 53m]
25,0.3 nM,COc1nc(NC[C@H]2CCC[C@@H](c3ccc(OC(F)(F)F)cc3)O2)c(C)c(C(=O)N2CCC(N[C@@H]3CCOC[C@@H]3OC)CC2)n1 [Example 53ad]
